# Results published in US12351559B2 (Biohaven Therapeutics Ltd., priority 2014, dated 2025).
# Molecular target: T1, Kv7.2/7.3 (Homo sapiens, UniProt O43525+O43526)
# T1 construct: host or cells: HEK cells, tetracycline-inducible expression
# Assay: Kv7.2/7.3 activation assay, QPatch planar patch-clamp, single concentration screen
# Type: cell-based
# Design: key: <1.2-fold increase over baseline (−); +/−: as a range from <1.2-fold increase over baseline (−) up to >6-fold increase over baseline (+++); as a range from <1.2-fold increase over baseline (−) up to >6-fold increase over baseline (+++); as a range from <1.2-fold increase over baseline (−) up to >6-fold increase over baseline (+++); >6-fold increase over baseline (+++)
# Conditions: Kv7.2/Kv7.3 co-expressing HEK cells, compound 3 μM, steady-state current at end of 2 s pulse to −30 mV
row,Compound,Kv7.2/7.3 Activity: increase in current over baseline
1,"CC(C)(O)Cc1ccc2nc(NC(=O)[C@H]3CC3(C)C)n(C3CCC3)c2c1F [Example 113, (S)-N-(1-cyclobutyl-7-fluoro-6-(2-hydroxy-2-methylpropyl)-1H-benzo[d]imidazol-2-yl)-2,2-dimethylcyclopropane-1-carboxamide]",+
2,"CC(C)(C)CC(=O)Nc1nc2ccc(CC(C)(C)O)c(F)c2n1C1CCC1 [Example 114, N-(1-cyclobutyl-7-fluoro-6-(2-hydroxy-2-methylpropyl)-1H-benzo[d]imidazol-2-yl)-3,3-dimethylbutanamide]",+
3,"CC(C)(O)Cc1ccc2nc(NC(=O)[C@H]3CC3(C)C)n(-c3ccc(F)cc3)c2c1F [Example 115, (S)-N-(7-fluoro-1-(4-fluorophenyl)-6-(2-hydroxy-2-methylpropyl)-1H-benzo[d]imidazol-2-yl)-2,2-dimethylcyclopropane-1-carboxamide]",+
4,"CC(C)(C)CC(=O)Nc1nc2ccc(CC(C)(C)O)c(F)c2n1-c1ccc(F)cc1 [Example 116, N-(7-fluoro-1-(4-fluorophenyl)-6-(2-hydroxy-2-methylpropyl)-1H-benzo[d]imidazol-2-yl)-3,3-dimethylbutanamide]",+
5,"CC(C)(C)CC(=O)Nc1nc2ccc(CC(=O)O)c(F)c2n1C1CCC1 [Example 117, 2-(1-cyclobutyl-2-(3,3-dimethylbutanamido)-7-fluoro-1H-benzo[d]imidazol-6-yl)acetic acid]",+/−
6,"CN(C)C(=O)Cc1ccc2nc(NC(=O)CC(C)(C)C)n(C3CCC3)c2c1F [Example 118, N-(1-cyclobutyl-6-(2-(dimethylamino)-2-oxoethyl)-7-fluoro-1H-benzo[d]imidazol-2-yl)-3,3-dimethylbutanamide]",+
7,"Cc1cc2nc(NC(=O)C[C@](C)(O)c3ccccc3)n(C(C)(C)C)c2cc1C#N [Example 119, (S)-N-(1-(tert-butyl)-6-cyano-5-methyl-1H-benzo[d]imidazol-2-yl)-3-hydroxy-3-phenylbutanamide]",+/−
8,"Cc1cc2nc(NC(=O)C[C@@](C)(O)c3ccccc3)n(C(C)(C)C)c2cc1C#N [Example 120, (R)-N-(1-(tert-butyl)-6-cyano-5-methyl-1H-benzo[d]imidazol-2-yl)-3-hydroxy-3-phenylbutanamide]",+
9,"Cc1cc2nc(NC(=O)C[C@](C)(O)c3ccc(F)cc3)n(C(C)(C)C)c2cc1C#N [Example 121, (S)-N-(1-(tert-butyl)-6-cyano-5-methyl-1H-benzo[d]imidazol-2-yl)-3-(4-fluorophenyl)-3-hydroxybutanamide]",+
10,"Cc1cc2nc(NC(=O)C[C@](C)(O)c3ccccc3F)n(C(C)(C)C)c2cc1C#N [Example 122, (S)-N-(1-(tert-butyl)-6-cyano-5-methyl-1H-benzo[d]imidazol-2-yl)-3-(2-fluorophenyl)-3-hydroxybutanamide]",++
11,"Cc1cc2nc(NC(=O)C[C@](C)(O)c3ccccc3)n(C3CCC3)c2cc1C#N [Example 123, (S)-N-(6-cyano-1-cyclobutyl-5-methyl-1H-benzo[d]imidazol-2-yl)-3-hydroxy-3-phenylbutanamide]",+/−
12,"Cc1cc2nc(NC(=O)C[C@@](C)(O)c3ccccc3)n(C3CCC3)c2cc1C#N [Example 124, (R)-N-(6-cyano-1-cyclobutyl-5-methyl-1H-benzo[d]imidazol-2-yl)-3-hydroxy-3-phenylbutanamide]",+/−
13,"Cc1cc2nc(NC(=O)C[C@](C)(O)c3ccc(F)cc3)n(C3CCC3)c2cc1C#N [Example 125, (S)-N-(6-cyano-1-cyclobutyl-5-methyl-1H-benzo[d]imidazol-2-yl)-3-(4-fluorophenyl)-3-hydroxybutanamide]",+/−
14,"Cc1cc2nc(NC(=O)C[C@](C)(O)c3ccccc3F)n(C3CCC3)c2cc1C#N [Example 126, (S)-N-(6-cyano-1-cyclobutyl-5-methyl-1H-benzo[d]imidazol-2-yl)-3-(2-fluorophenyl)-3-hydroxybutanamide]",++
15,"Cc1cc2nc(NC(=O)CC(C)(C)C)n(C(C)(C)C)c2cc1C#N [Example 127, N-(1-(tert-butyl)-6-cyano-5-methyl-1H-benzo[d]imidazol-2-yl)-3,3-dimethylbutanamide]",+
16,"Cc1cc2nc(NC(=O)CC(C)(C)O)n(C(C)(C)C)c2cc1C#N [Example 128, N-(1-(tert-butyl)-6-cyano-5-methyl-1H-benzo[d]imidazol-2-yl)-3-hydroxy-3-methylbutanamide]",+/−
17,"Cc1cc2nc(NC(=O)C3CC(F)(F)C3)n(C(C)(C)C)c2cc1C#N [Example 129, N-(1-(tert-butyl)-6-cyano-5-methyl-1H-benzo[d]imidazol-2-yl)-3,3-difluorocyclobutane-1-carboxamide]",+/−
18,"Cc1cc2nc(NC(=O)CC(C)(C)O)n(C3CCC3)c2cc1C#N [Example 130, N-(6-cyano-1-cyclobutyl-5-methyl-1H-benzo[d]imidazol-2-yl)-3-hydroxy-3-methylbutanamide]",+/−
19,"CC(C)(O)c1ccc2nc(NC(=O)CC(O)(C(F)(F)F)C(F)(F)F)n(-c3ccc(F)cc3)c2c1 [Example 131, 4,4,4-trifluoro-N-(1-(4-fluorophenyl)-6-(2-hydroxypropan-2-yl)-1H-benzo[d]imidazol-2-yl)-3-hydroxy-3-(trifluoromethyl)butanamide]",+/−
20,"C[C@@](O)(CC(=O)Nc1nc2cc(C(F)(F)F)cc(F)c2n1C1CCC1)C(F)(F)F [Example 132, (R)-N-(1-cyclobutyl-7-fluoro-5-(trifluoromethyl)-1H-benzo[d]imidazol-2-yl)-4,4,4-trifluoro-3-hydroxy-3-methylbutanamide]",+/−
21,"CC(C)(O)CC(=O)Nc1nc2cc(C(F)(F)F)cc(F)c2n1C1CCC1 [Example 133, N-(1-cyclobutyl-7-fluoro-5-(trifluoromethyl)-1H-benzo[d]imidazol-2-yl)-3-hydroxy-3-methylbutanamide]",+
22,"Cc1cc2nc(NC(=O)C[C@](C)(O)C(F)(F)F)n(C(C)(C)C)c2cc1C#N [Example 134, (S)-N-(1-(tert-butyl)-6-cyano-5-methyl-1H-benzo[d]imidazol-2-yl)-4,4,4-trifluoro-3-hydroxy-3-methylbutanamide]",+/−
23,"Cc1cc2nc(NC(=O)C[C@@](C)(O)C(F)(F)F)n(C(C)(C)C)c2cc1C#N [Example 135, (R)-N-(1-(tert-butyl)-6-cyano-5-methyl-1H-benzo[d]imidazol-2-yl)-4,4,4-trifluoro-3-hydroxy-3-methylbutanamide]",+/−
24,"CC(C)(O)CC(=O)Nc1nc2ccc(C(F)(F)F)cc2n1-c1cc(F)cc(F)c1 [Example 136, N-(1-(3,5-difluorophenyl)-6-(trifluoromethyl)-1H-benzo[d]imidazol-2-yl)-3-hydroxy-3-methylbutanamide]",+
